Assay results taken from ChEMBL document CHEMBL4304803, “C-terminal modulators of heat shock protein of 90 kDa (HSP90): State of development and modes of action” (Bioorg Med Chem, 2019).

Target: Heat shock protein HSP90 (Homo sapiens, UniProt P07900+P08238)
Assay: Binding affinity to HSP90 CTD (unknown origin) by circular dichroism spectroscopy
Format: protein assay

CC[C@H](C)[C@@H](ONC(=O)[C@H](ONC(=O)[C@@H](Cc1ccccc1)ONC(=O)[C@@H](Cc1ccccc1)ONC(=O)OCc1ccccc1)[C@@H](C)CC)C(=O)NO[C@H](CC(C)C)C(=O)NO[C@H](CC(C)C)C(N)=O
Kd: 27.4 µM
